Experimental data reported in EPA's ToxRefDB 2.

Key:
[1] = tested on: dog; conditions: Subchronic oral toxicity in nonrodent, beagle, Feed, dose end: 106 day, group: systemic
[2] = tested on: mouse; conditions: Carcinogenicity, b6c3f1, Oral, Feed, dose end: 24 month, group: systemic
[3] = tested on: rabbit; conditions: Prenatal developmental toxicity study, himalayan, Oral, Gavage/Intubation, dose end: 28 GD
[4] = tested on: mouse; conditions: Subchronic oral toxicity in rodents, b6c3f1, Feed, dose end: 90 day, group: systemic
[5] = tested on: rat; conditions: Multigenerational reproductive toxicity study, sprague dawley, Oral, Feed, dose end: 2 generation
[6] = tested on: rat; conditions: Combined chronic toxicity/carcinogenicity; wistar; Oral; Feed; dose end: 2 year; group: systemic; systemic / pathology microscopic / liver / cytoplasmic alteration + systemic / pathology microscopic / liver / hypertrophy + systemic / …
[7] = tested on: rat; conditions: Subchronic oral toxicity in rodents, wistar, Feed, dose end: 90 day, group: systemic
[8] = tested on: rat; conditions: Prenatal developmental toxicity study, wistar, Oral, Gavage/Intubation, dose end: 19 GD
[9] = tested on: dog; conditions: Chronic toxicity, beagle, Oral, Feed, dose end: 52 week, group: systemic
[10] = tested on: primate; conditions: Sub-acute repeat dose toxicity; Oral; Gavage/Intubation; dose end: 28 day; group: systemic; systemic / clinical chemistry / cholesterol / cholesterol, direct ldl + systemic / hematology / erythrocyte (rbc) count differential / …
[11] = tested on: rat; conditions: Sub-acute repeat dose toxicity, sprague dawley, Oral, Gavage/Intubation, dose end: 7 day, group: systemic
[12] = tested on: rat; conditions: Sub-acute repeat dose toxicity, sprague dawley, Oral, Gavage/Intubation, dose end: 29 day, group: systemic
[13] = tested on: primate; conditions: Sub-acute repeat dose toxicity, Oral, Gavage/Intubation, dose end: 5 day, group: systemic
[14] = systemic / clinical chemistry / [other] / [other] + systemic / clinical chemistry / epoxide hydrolase / epoxide hydrolase + systemic / …
[15] = systemic / clinical chemistry / epoxide hydrolase / epoxide hydrolase + systemic / pathology microscopic / prostate / secretory fluid
[16] = systemic / pathology microscopic / liver / degeneration + systemic / pathology microscopic / liver / fatty change + systemic / pathology …
[17] = systemic / pathology microscopic / lymph node / hemorrhage
[18] = group: developmental, systemic / in life observation / body weight / fetal weight
[19] = group: developmental, systemic / in life observation / body weight / fetal weight + developmental / developmental malformation / bone / full supernumerary + …
[20] = group: maternal, systemic / in life observation / body weight / body weight gain + systemic / in life observation / clinical signs / defecation + systemic / …
[21] = systemic / pathology microscopic / adrenal gland / fatty change + systemic / pathology microscopic / adrenal gland / hypertrophy
[22] = systemic / pathology microscopic / liver / hypertrophy
[23] = group: offspring, systemic / in life observation / body weight / offspring (pup) weight
[24] = group: parental, systemic / organ weight / liver / absolute + systemic / organ weight / liver / relative to body weight + systemic / organ weight / thyroid …
[25] = group: reproductive, reproductive / reproductive performance / dystocia / dystocia
[26] = systemic / clinical chemistry / triiodothyronine (t3) / triiodothyronine (t3), free
[27] = group: developmental, developmental / developmental malformation / bone / enlarged fontanel + developmental / developmental malformation / bone / incomplete …
[28] = group: maternal, reproductive / reproductive performance / resorptions / resorptions + systemic / in life observation / body weight / body weight + systemic…
[29] = systemic / organ weight / prostate / nos
[30] = systemic / organ weight / spleen / nos
[31] = systemic / clinical chemistry / aspartate aminotransferase (ast/sgot) / aspartate aminotransferase (ast/sgot) + systemic / clinical …
[32] = systemic / clinical chemistry / gamma glutamyl transferase (ggt) / gamma glutamyl transferase (ggt) + systemic / pathology microscopic / …
[33] = systemic / clinical chemistry / cytochrome p450, nos / cytochrome p450, nos + systemic / in life observation / clinical signs / alopecia + …
[34] = systemic / in life observation / clinical signs / salivation + systemic / organ weight / liver / absolute + systemic / pathology microscopic…
[35] = systemic / hematology / blood clotting / blood clotting - activated partial thromboplastin time + systemic / hematology / fibrinogen / …
[36] = systemic / hematology / blood clotting / blood clotting - activated partial thromboplastin time + systemic / in life observation / food …

N#CN=C1SCCN1Cc1ccc(Cl)nc1 [Thiacloprid]
LOAEL [1, 14]: 34.7 mg/kg/day
NOAEL [1, 14]: 8.9 mg/kg/day
LEL [1, 15]: 8.5 mg/kg/day
NEL [1, 15]: < 8.5 mg/kg/day
LOAEL [2, 16]: 234 mg/kg/day
NOAEL [2, 16]: 5.7 mg/kg/day
LEL [2, 17]: 5.7 mg/kg/day
NEL [2, 17]: < 5.7 mg/kg/day
LEL [3, 18]: 10 mg/kg/day
LOAEL [3, 18]: 10 mg/kg/day
NEL [3, 19]: 2 mg/kg/day
NOAEL [3, 19]: 2 mg/kg/day
LEL [3, 20]: 10 mg/kg/day
LOAEL [3, 20]: 10 mg/kg/day
NEL [3, 20]: 2 mg/kg/day
NOAEL [3, 20]: 2 mg/kg/day
LOAEL [4, 21]: 27.2 mg/kg/day
NOAEL [4, 21]: < 27.2 mg/kg/day
LEL [4, 22]: 19.9 mg/kg/day
NEL [4, 22]: < 19.9 mg/kg/day
LEL [5, 23]: 21 mg/kg/day
LOAEL [5, 23]: 21 mg/kg/day
NEL [5, 23]: 3.5 mg/kg/day
NOAEL [5, 23]: 3.5 mg/kg/day
LOAEL [5, 24]: 21 mg/kg/day
NEL [5, 24]: 3.5 mg/kg/day
NOAEL [5, 24]: 3.5 mg/kg/day
LEL ([5]; group: parental, systemic / organ weight / liver / absolute + systemic / organ weight / liver / relative to body weight + systemic / pathology microscopic / …): 21 mg/kg/day
LEL [5, 25]: 26 mg/kg/day
LOAEL [5, 25]: 26 mg/kg/day
NEL [5, 25]: 4.2 mg/kg/day
NOAEL [5, 25]: 4.2 mg/kg/day
LEL [6]: 2.5 mg/kg/day
LOAEL [6]: 2.5 mg/kg/day
NEL [6]: 1.2 mg/kg/day
NOAEL [6]: 1.2 mg/kg/day
LEL [7, 26]: 1.9 mg/kg/day
NEL [7, 26]: < 1.9 mg/kg/day
LOAEL ([7]; systemic / in life observation / body weight / body weight): 28.6 mg/kg/day
NOAEL ([7]; systemic / in life observation / body weight / body weight + systemic / clinical chemistry / cholesterol / cholesterol + systemic / clinical…): 7.3 mg/kg/day
LEL [8, 27]: 50 mg/kg/day
LOAEL [8, 27]: 50 mg/kg/day
NEL [8, 27]: 10 mg/kg/day
NOAEL [8, 27]: 10 mg/kg/day
LEL [8, 28]: 50 mg/kg/day
LOAEL [8, 28]: 50 mg/kg/day
NEL [8, 28]: 10 mg/kg/day
NOAEL [8, 28]: 10 mg/kg/day
LOAEL [9, 29]: > 32.2 mg/kg/day
NOAEL [9, 29]: ≥ 32.2 mg/kg/day
LEL [9, 30]: 1.39 mg/kg/day
NEL [9, 30]: < 1.39 mg/kg/day

CC[C@@H]1C[C@H](N(Cc2cc(C(F)(F)F)cc(C(F)(F)F)c2)C(C)=O)c2cc(C(F)(F)F)ccc2N1C(=O)OC(C)C
LEL [10]: 10 mg/kg/day
LOAEL [10]: > 140 mg/kg/day
NEL [10]: < 10 mg/kg/day
NOAEL [10]: ≥ 140 mg/kg/day
LOAEL [11, 31]: > 700 mg/kg/day
NOAEL [11, 31]: ≥ 700 mg/kg/day
LEL [11, 32]: 10 mg/kg/day
NEL [11, 32]: < 10 mg/kg/day
LOAEL [12, 33]: > 125 mg/kg/day
NOAEL [12, 33]: ≥ 125 mg/kg/day
LEL [12, 34]: 2 mg/kg/day
NEL [12, 34]: < 2 mg/kg/day
LOAEL [13, 35]: > 140 mg/kg/day
NOAEL [13, 35]: ≥ 140 mg/kg/day
LEL [13, 36]: 10 mg/kg/day
NEL [13, 36]: < 10 mg/kg/day
